Measurements published in ChEMBL document CHEMBL1201862, “PubChem BioAssay data set” (2004).
Activity calls are given as the source filed them.

Tests used:
[1] = target: Glycogen synthase kinase-3 alpha (Homo sapiens, UniProt P49840); experiment: Inhibition of Human GSK-3 alpha Activity Measured in Biochemical System Using Microfluidics - 2063-06_Inhibitor_Dose_DryPowder_Activity. [Related pubchem assays (depositor defined):AID2709]
[2] = target: Glycogen synthase kinase-3 beta (Homo sapiens, UniProt P49841); experiment: Inhibition of Human GSK-3 beta Activity Measured in Biochemical System Using Microfluidics - 2063-05_Inhibitor_Dose_DryPowder_Activity. [Related pubchem assays (depositor defined):AID2709]
Glycogen synthase kinase-3 beta, sequence (P49841 whole entry): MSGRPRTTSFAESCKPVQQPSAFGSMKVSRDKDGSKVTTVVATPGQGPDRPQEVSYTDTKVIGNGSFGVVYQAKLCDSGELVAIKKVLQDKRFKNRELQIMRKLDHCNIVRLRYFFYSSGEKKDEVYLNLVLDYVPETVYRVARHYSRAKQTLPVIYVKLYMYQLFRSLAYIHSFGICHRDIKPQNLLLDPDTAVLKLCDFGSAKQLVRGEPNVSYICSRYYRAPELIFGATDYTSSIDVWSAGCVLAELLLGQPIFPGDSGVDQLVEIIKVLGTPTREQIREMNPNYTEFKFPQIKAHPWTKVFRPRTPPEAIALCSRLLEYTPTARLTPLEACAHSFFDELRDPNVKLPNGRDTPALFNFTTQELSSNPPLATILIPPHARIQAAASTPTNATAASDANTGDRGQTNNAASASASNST

Candida albicans [3] = experiment: C. albicans growth inhibition with fluconazole – CaCi-2 strain, Alamar Blue, dry powder, set 4, dose response (AID 488943); assay type: functional, organism-based
Candida albicans [4] = experiment: Candida growth reduction in fluconazole presence – CaCi-2 strain, Alamar Blue, dry powder, set 2, antifungal resistance reversal project, dose response (AID 488930); assay type: functional, organism-based
Candida albicans [5] = experiment: resistant Candida growth with fluconazole co-treatment – CaCi-8 strain, Alamar Blue, dry powder, set 2, dose response (AID 488909); assay type: functional, organism-based
Candida albicans [6] = experiment: fluconazole-resistant Candida strain growth inhibitors – CaCi-8 strain, dry powder, set 4, dose response (AID 488950); assay type: functional, organism-based
INS1 = experiment: beta-cell survival under cytokine stress – INS-1E, ATP luminescence, dry powder, dose response (AID 488844); assay type: functional, cell-based; conditions: Rattus norvegicus
Jurkat = experiment: SAR Analysis of small molecule inhibitors of T-cell specific antigen receptor-induced NF-kB activation in a Jurkat cell line using a luminescence assay - Set 2. [Related pubchem assays (depositor defined):AID435003, AID435012, AID465]; assay type: functional, cell-based; conditions: Homo sapiens
HEK293 [7] = experiment: SAR Analysis of small molecule inhibitors of T-cell specific antigen receptor-induced NF-kB activation in a HEK-293T cell line using a luminescence assay - Set 2. [Related pubchem assays (depositor defined):AID435003, AID435012, AID489026]; assay type: functional, cell-based; conditions: Homo sapiens
HEK293 [8] = experiment: HEK293T cell viability loss, resazurin readout – resazurin fluorescence, cytotoxicity control for NF-kB activator project, SAR follow-up (AID 493251); assay type: functional, cell-based; conditions: Homo sapiens
[9] = target: 5-hydroxytryptamine receptor 5A (Homo sapiens, UniProt P47898); experiment: Counterscreen for agonists of OPRM1-OPRD1 heterodimerization: luminescence-based cell-based high throughput dose response assay to identify agonists of 5-hydroxytryptamine (serotonin) 5A receptor (HTR5A). [Related pubchem assays (depositor defined):AID504326, AID504355, AID504692, AID504904, AID504905]; assay type: functional
5-hydroxytryptamine receptor 5A, sequence (P47898 whole entry): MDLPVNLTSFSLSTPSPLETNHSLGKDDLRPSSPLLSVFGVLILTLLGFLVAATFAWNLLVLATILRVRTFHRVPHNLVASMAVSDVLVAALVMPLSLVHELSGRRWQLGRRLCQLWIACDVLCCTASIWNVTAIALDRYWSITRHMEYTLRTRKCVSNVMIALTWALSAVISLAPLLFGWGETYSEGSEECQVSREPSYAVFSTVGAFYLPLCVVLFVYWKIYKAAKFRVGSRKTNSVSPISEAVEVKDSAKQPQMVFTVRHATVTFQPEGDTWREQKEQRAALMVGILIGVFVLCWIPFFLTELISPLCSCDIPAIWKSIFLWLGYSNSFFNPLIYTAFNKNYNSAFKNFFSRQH

Paired box protein Pax-8 = Paired box protein Pax-8 (Homo sapiens, UniProt Q06710); experiment: PAX8 transcriptional activity inhibition in RMG-I – RMG-I cells, luciferase, cherry-pick, dose response (AID 687027); assay type: functional, cell-based;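 note: luciferase reporter driven by Pax8 target thyroperoxidase promoter measured by SteadyGlo luminescence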
Paired box protein Pax-8, sequence (Q06710 whole entry): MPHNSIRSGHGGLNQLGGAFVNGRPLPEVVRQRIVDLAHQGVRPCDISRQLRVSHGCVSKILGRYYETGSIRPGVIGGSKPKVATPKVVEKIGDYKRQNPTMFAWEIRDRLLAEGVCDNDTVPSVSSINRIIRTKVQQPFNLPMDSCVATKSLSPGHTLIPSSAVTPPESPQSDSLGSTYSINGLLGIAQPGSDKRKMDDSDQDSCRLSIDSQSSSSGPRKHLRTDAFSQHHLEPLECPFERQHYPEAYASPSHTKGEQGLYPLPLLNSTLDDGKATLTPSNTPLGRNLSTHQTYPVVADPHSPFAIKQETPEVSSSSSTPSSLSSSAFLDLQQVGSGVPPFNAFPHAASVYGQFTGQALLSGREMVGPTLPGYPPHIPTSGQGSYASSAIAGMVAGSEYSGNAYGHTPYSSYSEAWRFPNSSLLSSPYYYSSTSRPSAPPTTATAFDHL

[10] = target: Voltage-gated inwardly rectifying potassium channel KCNH2 (Homo sapiens, UniProt Q12809); conditions: Potency;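 note: confirmatory quantitative high-throughput screen measuring inhibition of hERG channel activity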
Voltage-gated inwardly rectifying potassium channel KCNH2, sequence (Q12809 whole entry): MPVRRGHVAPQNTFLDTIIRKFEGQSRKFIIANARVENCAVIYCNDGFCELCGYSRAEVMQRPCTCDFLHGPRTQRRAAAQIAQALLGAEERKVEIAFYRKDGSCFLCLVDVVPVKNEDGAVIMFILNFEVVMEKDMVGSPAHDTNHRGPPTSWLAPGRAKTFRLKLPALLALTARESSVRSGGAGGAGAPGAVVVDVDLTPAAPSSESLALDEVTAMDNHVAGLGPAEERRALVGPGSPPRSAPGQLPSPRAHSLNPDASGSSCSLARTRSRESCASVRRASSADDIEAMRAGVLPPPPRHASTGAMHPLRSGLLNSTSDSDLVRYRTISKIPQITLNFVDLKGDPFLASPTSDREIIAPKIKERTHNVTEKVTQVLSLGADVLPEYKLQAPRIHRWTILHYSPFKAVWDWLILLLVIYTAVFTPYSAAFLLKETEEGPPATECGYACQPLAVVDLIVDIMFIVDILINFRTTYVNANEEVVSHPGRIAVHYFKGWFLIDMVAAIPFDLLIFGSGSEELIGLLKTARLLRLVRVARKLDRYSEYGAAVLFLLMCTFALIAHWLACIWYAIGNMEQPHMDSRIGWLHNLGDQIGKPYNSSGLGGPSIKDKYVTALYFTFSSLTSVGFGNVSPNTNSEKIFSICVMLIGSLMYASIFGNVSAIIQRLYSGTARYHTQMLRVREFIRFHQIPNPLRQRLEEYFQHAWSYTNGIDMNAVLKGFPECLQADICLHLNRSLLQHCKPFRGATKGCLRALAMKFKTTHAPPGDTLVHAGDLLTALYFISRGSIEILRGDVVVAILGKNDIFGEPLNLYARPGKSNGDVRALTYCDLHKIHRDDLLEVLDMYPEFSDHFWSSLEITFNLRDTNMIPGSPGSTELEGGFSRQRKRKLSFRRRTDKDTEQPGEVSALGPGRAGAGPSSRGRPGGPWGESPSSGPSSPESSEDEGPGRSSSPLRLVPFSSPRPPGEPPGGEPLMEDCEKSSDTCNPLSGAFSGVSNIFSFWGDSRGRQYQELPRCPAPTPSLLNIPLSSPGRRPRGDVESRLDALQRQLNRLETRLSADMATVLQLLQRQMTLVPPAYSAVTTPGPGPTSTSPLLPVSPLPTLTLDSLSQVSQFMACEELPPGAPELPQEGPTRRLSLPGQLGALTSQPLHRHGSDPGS

Cytochrome P450 2D6 = Cytochrome P450 2D6 (Homo sapiens, UniProt P10635);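 note: CYP2D6 member of a cytochrome P450 panel assay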
Cytochrome P450 2D6, sequence (P10635 whole entry, the tested form may be a part): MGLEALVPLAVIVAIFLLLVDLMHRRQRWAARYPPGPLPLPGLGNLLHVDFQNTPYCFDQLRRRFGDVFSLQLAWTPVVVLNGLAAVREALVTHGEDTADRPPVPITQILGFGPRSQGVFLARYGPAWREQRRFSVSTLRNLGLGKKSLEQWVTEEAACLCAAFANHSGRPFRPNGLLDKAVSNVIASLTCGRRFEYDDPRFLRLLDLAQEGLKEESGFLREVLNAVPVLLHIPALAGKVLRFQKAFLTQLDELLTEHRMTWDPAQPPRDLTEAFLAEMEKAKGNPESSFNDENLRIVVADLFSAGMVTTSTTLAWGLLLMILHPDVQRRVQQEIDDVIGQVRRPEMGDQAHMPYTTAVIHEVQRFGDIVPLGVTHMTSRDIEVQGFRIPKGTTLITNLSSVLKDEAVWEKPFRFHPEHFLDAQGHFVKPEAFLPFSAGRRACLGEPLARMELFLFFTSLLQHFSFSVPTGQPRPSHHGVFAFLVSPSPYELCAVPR

[11] = blockers of HIV-1 envelope-mediated cell-cell fusion – cherry-pick, dose response (AID 652057); assay type: functional, cell-based
[12] = viability loss in CEM21 cells – cell-based, CellTiter-Glo luminescence, cherry-picked, cytotoxicity control for viral fusion inhibitor project, dose response (AID 652042); assay type: functional;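 note: potency for signal decrease meaning cytotoxicity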
[13] = target: Delta-type opioid receptor (Homo sapiens, UniProt P41143); experiment: Counterscreen for agonists of heterodimerization of the mu 1 (OPRM1) and delta 1 (OPRD1) opioid receptors: Luminescence-based cell-based high throughput dose response assay to identify agonists of OPRD1 homodimerization. [Related pubchem assays (depositor defined):AID504326, AID504355, AID504692, AID504904, AID504905]; assay type: functional
Delta-type opioid receptor, sequence (P41143 whole entry): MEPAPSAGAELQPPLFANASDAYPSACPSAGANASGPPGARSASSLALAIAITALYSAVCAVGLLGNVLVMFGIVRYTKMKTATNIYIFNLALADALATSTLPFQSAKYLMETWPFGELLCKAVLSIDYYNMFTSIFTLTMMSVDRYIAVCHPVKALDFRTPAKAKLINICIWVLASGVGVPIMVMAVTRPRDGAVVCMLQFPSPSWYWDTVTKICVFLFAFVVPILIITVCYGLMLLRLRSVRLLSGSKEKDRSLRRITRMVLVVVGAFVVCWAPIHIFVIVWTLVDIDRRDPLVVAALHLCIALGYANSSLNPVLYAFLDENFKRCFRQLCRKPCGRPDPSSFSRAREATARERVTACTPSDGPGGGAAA

Mu-type opioid receptor = Mu-type opioid receptor (Homo sapiens, UniProt P35372); experiment: Counterscreen for agonists of heterodimerization of the mu 1 (OPRM1) and delta 1 (OPRD1) opioid receptors: Luminescence-based cell-based high throughput dose response assay to identify agonists of OPRM1 homodimerization.; assay type: functional;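 note: U2OS cells expressing OPRM1 and beta-arrestin as split beta-galactosidase partners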
Mu-type opioid receptor, sequence (P35372 whole entry): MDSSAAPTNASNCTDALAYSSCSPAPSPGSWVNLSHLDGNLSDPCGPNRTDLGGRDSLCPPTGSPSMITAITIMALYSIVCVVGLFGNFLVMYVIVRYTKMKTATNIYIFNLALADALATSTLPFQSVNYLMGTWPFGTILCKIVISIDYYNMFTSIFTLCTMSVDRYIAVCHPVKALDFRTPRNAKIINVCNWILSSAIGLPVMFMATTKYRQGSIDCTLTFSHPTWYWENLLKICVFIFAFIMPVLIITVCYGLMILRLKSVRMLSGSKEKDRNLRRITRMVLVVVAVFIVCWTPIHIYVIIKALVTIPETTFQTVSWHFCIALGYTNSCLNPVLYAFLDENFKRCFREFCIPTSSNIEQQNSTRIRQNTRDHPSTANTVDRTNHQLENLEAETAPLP

Glycogen synthase kinase-3 alpha, sequence (P49840 whole entry): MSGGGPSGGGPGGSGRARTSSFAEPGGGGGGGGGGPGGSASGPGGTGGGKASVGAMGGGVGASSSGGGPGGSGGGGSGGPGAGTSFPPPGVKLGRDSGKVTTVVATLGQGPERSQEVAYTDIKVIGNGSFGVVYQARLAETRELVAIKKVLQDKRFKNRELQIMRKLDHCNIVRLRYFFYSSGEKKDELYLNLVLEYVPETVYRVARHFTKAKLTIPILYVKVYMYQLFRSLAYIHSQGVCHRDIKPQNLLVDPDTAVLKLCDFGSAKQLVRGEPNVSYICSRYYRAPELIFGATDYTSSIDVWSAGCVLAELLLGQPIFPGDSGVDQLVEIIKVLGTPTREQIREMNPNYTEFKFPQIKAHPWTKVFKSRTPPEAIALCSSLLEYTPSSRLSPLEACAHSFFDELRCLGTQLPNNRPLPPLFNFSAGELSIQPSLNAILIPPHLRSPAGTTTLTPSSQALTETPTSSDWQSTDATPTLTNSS

For `COC(=O)c1ccc(CSc2ccc3nnc(-c4ccc(OC)cc4)n3n2)o1`, the AC50 [1] was 6.84 µM (active) and the AC50 [2] was 1.94 µM (active).

With `O=C(c1ccc(Cl)nc1)N1CCN(c2ccnc3cc(Cl)ccc23)CC1` the AC50 (Candida albicans [3]) was 3.16 µM (active), the AC50 (Candida albicans [4]) was 2.99 µM (active) and the AC50 (Candida albicans [5]) was < 0.195 µM (active). For the same compound, the AC50 (Candida albicans [6]) was 7.3 µM (active).

In the case of `COc1ccc(S(=O)(=O)N(C)C[C@@H]2Oc3c(NS(=O)(=O)c4ccc(C)cc4)cccc3C(=O)N([C@@H](C)CO)C[C@H]2C)cc1`, the AC50 (INS1) is reported as > 235 µM (inactive).

For `CC(C)(C)NC(=O)CCc1nc(-c2ccc(C(C)(C)C)cc2)no1`, the IC50 (Jurkat) was 2.77 µM (active), the IC50 (HEK293 [7]) was 6.68 µM (active) and the IC50 (HEK293 [8]) was 39 µM (inactive).

In the case of `CCN(c1nc(N)c(C(=O)NC(=N)N)nc1Cl)C(C)C` [5-(N-ETHYL-N-ISOPROPYL)AMILORIDE], the EC50 [9] is reported as 85.8 µM (inactive), the AC50 (Paired box protein Pax-8) is reported as 20.9 µM (active) and the AC50 [10] is reported as 35.5 µM (inconclusive). For the same compound, the AC50 (Cytochrome P450 2D6) was 31.6 µM (inconclusive), the AC50 [11] was 1.98 µM (active) and the AC50 [12] was 63.8 µM (active). For the same compound, the EC50 [13] was 64.1 µM (inactive) and the EC50 (Mu-type opioid receptor) was > 92.5 µM (inactive).
